Measured values as given in patent US9216991B2 (Ares Trading S.A., priority 2012, dated 2015).
pIC50: −log10 of the molar value. Counter-ions that a name gives are not always drawn.

Target: T1, IRAK4 (Homo sapiens, UniProt Q9NWZ3)
T1 construct: His (N); TEV cleavage site (N)
T1 sequence (Q9NWZ3 1-460): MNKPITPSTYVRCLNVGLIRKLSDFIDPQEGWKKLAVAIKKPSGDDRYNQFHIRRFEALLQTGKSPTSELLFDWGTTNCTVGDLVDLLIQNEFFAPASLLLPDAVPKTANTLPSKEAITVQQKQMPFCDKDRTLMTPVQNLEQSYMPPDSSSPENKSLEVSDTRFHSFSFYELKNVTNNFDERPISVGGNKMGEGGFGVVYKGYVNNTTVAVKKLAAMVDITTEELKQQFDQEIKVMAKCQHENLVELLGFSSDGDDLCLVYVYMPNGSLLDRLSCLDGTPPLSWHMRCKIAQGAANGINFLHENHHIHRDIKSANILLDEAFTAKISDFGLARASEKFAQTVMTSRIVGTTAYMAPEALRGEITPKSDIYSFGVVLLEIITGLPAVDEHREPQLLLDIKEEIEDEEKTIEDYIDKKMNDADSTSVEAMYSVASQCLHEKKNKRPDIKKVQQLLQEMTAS
Experiment: IRAK4 Enzymatic Assay
Format: biochemical
Details: His-TEV-IRAK4 20 ng/well, ATP 2 μM, STK1-biotin peptide 300 nM, 3 hours at 30° C., FlashPlate radioactivity
Method in brief: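 Recombinant His-TEV-tagged IRAK4 (20 ng/well) phosphorylates biotinylated STK1 peptide (300 nM) with 2 μM ATP plus [^33P]ATP, 3 h at 30 °C in pH 7.0 HEPES buffer with MgCl2 and MnCl2; compounds tested 20 μM to 1 nM. Reaction stopped with EDTA; incorporated radioactivity counted on streptavidin FlashPlates.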

## CC(=O)N1CC[C@@H](n2cc(-c3cnc(-c4cccc(-c5cnn(C)c5)c4)nc3)cn2)C1 [Example 130, 1-[(R)-3-(4-{2-[3-(1-Methyl-1H-pyrazol-4-yl)-phenyl]-pyrimidin-5-yl}-pyrazol-1-yl)-pyrrolidin-1-yl]-ethanone]
  pIC50: 5.30 to 6.00

## Cn1cc(-c2cccc(-c3ncc(-c4cnn(C5CCCS(=O)(=O)C5)c4)cn3)c2)cn1 (stereo not drawn) [Example 177, 5-[1-(1,1-Dioxo-hexahydro-1l6-thiopyran-3-yl)-1H-pyrazol-4-yl]-2-[3-(1-methyl-1H-pyrazol-4-yl)-phenyl]-pyrimidin]
  pIC50: > 7.00

## Cn1cc(-c2cccc(-c3ncc(-c4cnn(CC(=O)N5CCOC(CCO)C5)c4)cn3)c2)cn1 (stereo not drawn) [Example 75, 1-[2-(2-Hydroxy-ethyl)-morpholin-4-yl]-2-(4-{2-[3-(1-methyl-1H-pyrazol-4-yl)-phenyl]-pyrimidin-5-yl}-pyrazol-1-yl)-ethanone]
  pIC50: 6.00 to 7.00

## Cn1cc(-c2cccc(-c3ncc(-c4cnn([C@H]5CC[C@H](C(=O)NCCCO)CC5)c4)cn3)c2)cn1 [Example 190, Trans-4-(4-{2-[3-(1-Methyl-1H-pyrazol-4-yl)-phenyl]-pyrimidin-5-yl}-pyrazol-1-yl)-cyclohexanecarboxylic acid (3-hydroxy-propyl)-amide]
  pIC50: > 7.00

## CN(C)C(=O)C1CC(n2cc(-c3cnc(-c4cccc(-c5cnn(C)c5)c4)nc3)cn2)C1 (stereo not drawn) [Example 158, 3-(4-{2-[3-(1-Methyl-1H-pyrazol-4-yl)-phenyl]-pyrimidin-5-yl}-pyrazol-1-yl)-cyclobutanecarboxylic acid dimethylamide]
  pIC50: 6.00 to 7.00

## Cn1cc(-c2cccc(-c3ncc(-c4cnn([C@H]5CC[C@H](C(=O)NC6CC6)CC5)c4)cn3)c2)cn1 [Example 170, Trans-4-(4-{2-[3-(1-Methyl-1H-pyrazol-4-yl)-phenyl]-pyrimidin-5-yl}-pyrazol-1-yl)-cyclohexanecarboxylic acid cyclopropylamide]
  pIC50: > 7.00

## CN1CCN(C(=O)[C@H]2CC[C@H](n3cc(-c4cnc(-c5cccc(-c6cnn(C)c6)c5)nc4)cn3)CC2)CC1 [Example 160, Trans-(4-Methyl-piperazin-1-yl)-[4-(4-{2-[3-(1-methyl-1H-pyrazol-4-yl)-phenyl]-pyrimidin-5-yl}-pyrazol-1-yl)-cyclohexyl]-methanone]
  pIC50: > 7.00

## CC(=O)N1CC[C@@H](n2cc(-c3cnc(-c4cccc(-c5cnn(C)c5)c4)nc3)cn2)[C@H](O)C1 (single isomer, unassigned) [Example 201]
  pIC50: 6.00 to 7.00

## Cn1cc(-c2cccc(-c3ncc(-c4cnn(CC(=O)N5CCC5)c4)cn3)c2)cn1 [Example 77, 1-Azetidin-1-yl-2-(4-{2-[3-(1-methyl-1H-pyrazol-4-yl)-phenyl]-pyrimidin-5-yl}-pyrazol-1-yl)-ethanone]
  pIC50: 6.00 to 7.00

## CN(CCO)C(=O)[C@H]1CC[C@H](n2cc(-c3cnc(-c4cccc(-c5cnn(C)c5)c4)nc3)cn2)CC1 [Example 185, trans-4-(4-{2-[3-(1-Methyl-1H-pyrazol-4-yl)-phenyl]-pyrimidin-5-yl}-pyrazol-1-yl)-cyclohexanecarboxylic acid (2-hydroxy-ethyl)-methyl-amide]
  pIC50: > 7.00

## Cn1cc(-c2cccc(-c3ncc(-c4cnn(C5CCCC5O)c4)cn3)c2)cn1 (stereo not drawn) [Example 211, 2-(4-{2-[3-(1-Methyl-1H-pyrazol-4-yl)-phenyl]-pyrimidin-5-yl}-pyrazol-1-yl)-cyclopentanol]
  pIC50: 6.00 to 7.00

## Cn1cc(-c2cccc(-c3ncc(-c4cnn(C5CCC(C(=O)N6CCO[C@H](CO)C6)CC5)c4)cn3)c2)cn1 (stereo partly drawn) [Example 261, ((S)-2-Hydroxymethyl-morpholin-4-yl)-[4-((S)-4-{2-[3-(1-methyl-1H-pyrazol-4-yl)-phenyl]-pyrimidin-5-yl}-pyrazol-1-yl)-cyclohexyl]-methanone]
  pIC50: > 7.00

## Cn1cc(-c2cccc(-c3ncc(-c4cnn(CC(=O)N5CCOCC5)c4)cn3)c2)cn1 [Example 36, 2-(4-{2-[3-(1-Methyl-1H-pyrazol-4-yl)-phenyl]-pyrimidin-5-yl}-pyrazol-1-yl)-1-morpholin-4-yl-ethanone]
  pIC50: 6.00 to 7.00

## NCCn1cc(-c2cccc(-c3ncc(-c4cnn(CC(=O)N5CCCC5)c4)cn3)c2)cn1 [Example 50, 2-[4-(2-{3-[1-(2-Amino-ethyl)-1H-pyrazol-4-yl]-phenyl}-pyrimidin-5-yl)-pyrazol-1-yl]-1-pyrrolidin-1-yl-ethanone hydrochloride]
  pIC50: 5.30 to 6.00

## Cn1cc(-c2cccc(-c3ncc(-c4cnn([C@@H]5CCNC[C@@H]5F)c4)cn3)c2)cn1 (relative stereo) [Example 265]
  pIC50: 6.00 to 7.00

## Cn1cc(-c2cccc(-c3ncc(-c4cnn([C@H]5CC[C@H](C(=O)NC(C)(C)C)CC5)c4)cn3)c2)cn1 [Example 192, Trans-4-(4-{2-[3-(1-Methyl-1H-pyrazol-4-yl)-phenyl]-pyrimidin-5-yl}-pyrazol-1-yl)-cyclohexanecarboxylic acid tert-butylamide]
  pIC50: > 7.00

## Cn1cc(-c2cccc(-c3ncc(-c4cnn(C5CCN(C(=O)C(O)C(F)(F)F)CC5)c4)cn3)c2)cn1 (stereo not drawn) [Example 115, 3,3,3-Trifluoro-2-hydroxy-1-[4-(4-{2-[3-(1-methyl-1H-pyrazol-4-yl)-phenyl]-pyrimidin-5-yl}-pyrazol-1-yl)-piperidin-1-yl]-propan-1-one]
  pIC50: 6.00 to 7.00

## COCCO[C@H]1CC[C@@H](n2cc(-c3cnc(-c4cccc(-c5cnn(C)c5)c4)nc3)cn2)CC1 [Example 218, cis-5-{1-[4-(2-Methoxy-ethoxy)-cyclohexyl]-1H-pyrazol-4-yl}-2-[3-(1-methyl-1H-pyrazol-4-yl)-phenyl]-pyrimidine]
  pIC50: 6.00 to 7.00

## Cn1cc(-c2cccc(-c3ncc(-c4cnn([C@H]5CC[C@H](C(=O)N6CC[C@H](O)C6)CC5)c4)cn3)c2)cn1 [Example 205, trans-((S)-3-Hydroxy-pyrrolidin-1-yl)-[4-(4-{2-[3-(1-methyl-1H-pyrazol-4-yl)-phenyl]-pyrimidin-5-yl}-pyrazol-1-yl)-cyclohexyl]-methanone]
  pIC50: > 7.00

## Cc1cc(-c2cccc(-c3ncc(-c4cnn([C@H]5CCCS(=O)(=O)C5)c4)cn3)c2)cnn1 (single isomer, unassigned) [Example 240]
  pIC50: 6.00 to 7.00

## COCCC(=O)N[C@H]1CC[C@@H](n2cc(-c3cnc(-c4cccc(-c5cnn(C)c5)c4)nc3)cn2)CC1 [Example 166, Cis-3-Methoxy-N-[4-(4-{2-[3-(1-methyl-1H-pyrazol-4-yl)-phenyl]-pyrimidin-5-yl}-pyrazol-1-yl)-cyclohexyl]-propionamide]
  pIC50: 6.00 to 7.00

## Cn1cc(-c2cccc(-c3ncc(-c4cnn([C@H]5CC[C@H](C(=O)NC(C)(C)CO)CC5)c4)cn3)c2)cn1 [Example 213, trans-4-(4-{2-[3-(1-Methyl-1H-pyrazol-4-yl)-phenyl]-pyrimidin-5-yl}-pyrazol-1-yl)-cyclohexanecarboxylic acid (2-hydroxy-1,1-dimethyl-ethyl)-amide]
  pIC50: > 7.00

## Cn1cc(-c2cccc(-c3ncc(-c4cnn([C@H]5CC[C@H](N6CCOC6=O)CC5)c4)cn3)c2)cn1 [Example 255, 3-[4-(4-{2-[3-(1-Methyl-1H-pyrazol-4-yl)-phenyl]-pyrimidin-5-yl}-pyrazol-1-yl)-cyclohexyl]-oxazolidin-2-one]
  pIC50: 6.00 to 7.00

## Cn1cc(-c2cccc(-c3ncc(-c4cnn(C5CCNCC5)c4)cn3)c2F)cn1 [Example 48, 2-[2-Fluoro-3-(1-methyl-1H-pyrazol-4-yl)-phenyl]-5-(1-piperidin-4-yl-1H-pyrazol-4-yl)-pyrimidine Formate]
  pIC50: 5.30 to 6.00

## Cn1cc(-c2cccc(-c3ncc(-c4cnn([C@H]5CC[C@H](NCCO)CC5)c4)cn3)c2)cn1 [Example 289, 2-trans-[4-(4-{2-[3-(1-Methyl-1H-pyrazol-4-yl)-phenyl]-pyrimidin-5-yl}-pyrazol-1-yl)-cyclohexylamino]-ethano]
  pIC50: > 7.00

## c1cc(-c2cn[nH]c2)cc(-c2ncc(-c3cnn(C4CCNCC4)c3)cn2)c1 [Example 18, 5-(1-Piperidin-4-yl-1H-pyrazol-4-yl)-2-[3-(1H-pyrazol-4-yl)-phenyl]-pyrimidine hydrochloride]
  pIC50: > 7.00

## FCC(CF)n1cc(-c2cccc(-c3ncc(-c4cnn(C5CCNCC5)c4)cn3)c2)cn1 [Example 16, 2-{3-[1-(2-Fluoro-1-fluoromethyl-ethyl)-1H-pyrazol-4-yl]-phenyl}-5-(1-piperidin-4-yl-1H-pyrazol-4-yl)-pyrimidine hydrochloride]
  pIC50: 6.00 to 7.00

## COC1CN(C(=O)CCn2cc(-c3cnc(-c4cccc(-c5cnn(C)c5)c4)nc3)cn2)C1 [Example 100, 1-(3-Methoxy-azetidin-1-yl)-3-(4-{2-[3-(1-methyl-1H-pyrazol-4-yl)-phenyl]-pyrimidin-5-yl}-pyrazol-1-yl)-propan-1-one]
  pIC50: 5.30 to 6.00

## Cn1cc(-c2cccc(-c3ncc(-c4cnn(C5CC6COCC(C5)N6)c4)cn3)c2)cn1 (stereo not drawn) [Example 179, 7-(4-{2-[3-(1-Methyl-1H-pyrazol-4-yl)-phenyl]-pyrimidin-5-yl}-pyrazol-1-yl)-3-oxa-9-aza-bicyclo[3.3.1]nonane]
  pIC50: > 7.00

## Cn1cc(-c2cccc(-c3ncc(-c4cnn(C5CCOC5)c4)cn3)c2)cn1 (stereo not drawn) [Example 12, 2-[3-(1-Methyl-1H-pyrazol-4-yl)-phenyl]-5-[1-(tetrahydro-furan-3-yl)-1H-pyrazol-4-yl]-pyrimidine]
  pIC50: 6.00 to 7.00
